The test system of data set [1] is calcium level in serum. The experiment in a line: Serum calcium in patient with sarcoidosis accompanied by hypercalcemia (Example 8). In kind it is in vivo, human. Particulars: person two. The method, then: To patient two diagnosed to be sarcoidosis accompanied by hypercalcemia of the calcium level in their serum of 14.0 mg/dl, the capsule composition similar to that prepared in Example 6 was administered orally at a daily dose of two capsules each containing 5 micrograms of 24R,25-(OH)2 -D3 for continuous 5 days. The calcium level in serum from the blood specimen collected on the sixth day of the commencement of the treatment was 10.8 mg/dl.

Data set [2] concerns calcium level in serum. Kind of data set: Prevention of hypercalcemia in rats administered with 1-α-(OH)-D3 (Example 4). In kind it is in vivo, male Wistar rats. Particulars: 100 µg/kg oral together with 1-α-(OH)-D3 10 µg/kg i.p. The source says: In the present example, it is shown that 24R,25-(OH)2 -D3 has a function of preventing the occurrence of hypercalcemia on rats administered with 1-α-hydroxycholecalciferol (hereinafter referred to as 1-α-(OH)-D3).
Six subgroups of male Wistar rats of 130±30 g of body weight were subjected to the test while dividing the rats into 3 groups, each group consisting of 2 subgroups and each subgroup consisting of 5 animals. To the rats of the first group, after fasting for a night, an ethanolic solution of 1-α-(OH)-D3 was intraperitoneally administered at a dose rate of 10 micrograms of 1-α-(OH)-D3 /kg body weight. To the rats of the second group, a solution of 24R,25-(OH)2 -D3 in the triglyceride ester used in Example 1 was orally administered at a dose rate of 100 micrograms/kg body weight simultaneously with the same administration of 1-α-(OH)-D3 as in the rats of the first group.
The third group of the rats was used for control only with the oral administration of the triglyceride ester used in Example 1.

The subject of data set [3] is K-562 tumour cell derived from human leukemia. Kind of data set: Inhibition of proliferation of K-562 cells (Example 24). Type of data set: cell-based. As to conditions: 3 days. The method, then: Cultured K-562 tumour cell derived from human leukemia, which proliferates in a suspended state in RPMI-1640 culture medium added with 10% by weight of fetal bovine serum was used in the following experiment.
The cells were cultured in the above-mentioned culture medium at an initial cell concentration of 1×10^5 cells/ml with or without adding 24R,25-(OH)2 -D3, which was placed in dishes kept in an incubator of an atmosphere consisting of 95% by volume of air and 5% by volume of gaseous carbon dioxide at 37° C. After culturing 3 days, the cultured medium was stained with tripan blue to count the total number of living cells. The results are shown in Table 18 with the specifically added substances into the culture medium other than fetal bovine serum of 10% by weight.

The nature of data set [4]: 30-day repeated oral administration toxicity (Example 26). As to conditions: 10 to 1000 µg/kg/day p.o., 30 days. Type of data set: in vivo, ICR mouse. The method, then: 24R,25-(OH)2 -D3 was dissolved in Panacete® 810 containing 1% by weight of ethanol, and the solution was forcibly p.o. administered once a day for 30 continuous days to each male or female ICR mouse of the groups shown in Table 20 at each one of the daily dose rates also shown in Table 20.
As the control, Panacete 810 was solely and forcibly p.o. administered to the mice of the same strain once a day for 30 continuous days.

The subject of data set [5] is calcium level in serum. The experiment in a line: Serum calcium in rats made hypercalcemic with Vitamin D3 (Example 1). In kind it is in vivo, male Wistar rats. As to conditions: for Calcium level in serum: 24R 100 µg/kg oral, calcitonin 4 MRCU/kg s.c. The method, then: To 16 subgroups of male Wistar rats of body weight of 150±40 g (one subgroup consisting of 5 rats), a solution of Vitamin D3 dissolved in corn oil at 600 micrograms/ml was orally administered once a day for continuous 4 days at a daily dose rate of 0.5 ml/100 g body weight to prepare the rats artifically suffering from hypercalcemia. After one day's fasting from the final administration of Vitamin D3, the calcium level in the serum of each rat of the first subgroup was on the average 13.5±0.4 mg/dl. The remaining 15 subgroups of the rats were divided into 3 groups each consisting of 5 subgroups and subjected to the following tests.
To the rats of the second group, a solution of porcine calcitonin in a physiological saline solution containing 4% by weight of gelatin was subcutaneously injected at a dose rate of 4 MRCU/kg body weight instead of the solution of 24R,25-(OH)2 -D3 and they were treated as those of the first group.
To the rats of the third group, only the same triglyceride ester as in the first group was orally administered, and they are treated in the same manner as in the first group.
The calcium level of the respective sera of the thus collected blood was determined by OCPC method (Orthocresol Phthalein Complexone method) and shown in Table 1.

Data set [6] concerns inorganic phosphate in serum. Kind of data set: Serum inorganic phosphate in 5/6-nephrectomized rats (Example 18). In kind it is in vivo, male Wistar rats. As to conditions: hyperphosphatemia due to 5/6-nephrectomy. The method, then: Ten milligrams of 24R,25-(OH)2 -D3 was dissolved in 10 ml of isopropyl alcohol and one ml of the thus obtained solution was admixed into 1,000 ml of distilled water under agitation. The thus obtained solution has the concentration of isopropyl alcohol of 0.1% by weight and the concentration of 24R,25-(OH)2 -D3 of 1 microgram/ml and was called as the composition for oral administration A (abbreviated and referred to as Composition A hereinafter). In a similar manner as the above, another composition for oral administration of the concentration of 24R,25-(OH)2 -D3 of 0.1 microgram/ml and the concentration of isopropyl alcohol of 0.1% by weight was prepared, and referred to hereinafter as Composition B.
Thirty male Wistar rats of average body weight of 200±30 g were subjected to operation of 5/6--nephrectomy.
Ten male Wistar rats of the same average body weight were subjected to sham operation. After one month of the operation, the above-mentioned Composition A or Composition B was given to each group (one group consisting of 10 animals) of the rats 6 times a week for 9 weeks to be taken ad lib. The amount of 24R,25-(OH)2 -D3 taken by each rat for a week was calculated from the total amount of water taken by the rats of the group, the total amount of water taken by the rats being actually measured week after week.

Data set [7] concerns calcium level in serum. Kind of data set: Serum calcium in rats transplanted with Walker-carcinosarcoma 256 (Example 5). In kind it is in vivo, Sprague-Dawley rat. The method, then:
After injecting 0.5 ml of ascites of Walker-carcinosarcoma 256 adjusted to contain 2×10^6 tumour cells per microliter into the upper part of the right thigh of a Sprague-Dawley rat of body weight of 90-140 g, a solution of 24R,25-(OH)2 -D3 in the triglyceride ester used in Example 1 at a concentration of 0.5 microgram/100 microliter was orally administered once a day for continuous 7 days at a daily dose rate of 20 micrograms of 24R,25-(OH)2 -D3 per kg body weight of the rat. […] The blood specimen was also collected in the same manner from a rat of the same strain injected with the ascites in the same manner as in the first rat, however, only administered with the triglyceride ester. The two levels of calcium in the respective sera of the two groups were compared in Table 5.

Consider `C=C1CC[C@H](O)C/C1=C/C=C1\CCC[C@]2(C)[C@@H]([C@H](C)CC[C@@H](O)C(C)(C)O)CC[C@@H]12` [24R,25-(OH)2 -D3], for which, in data set [1] (baseline), the “calcium level in serum before treatment” value is 14.0 mg/dL. The “calcium level in serum on the sixth day” value in data set [1] (two 5 µg capsules/day oral, 5 days) was 10.8 mg/dL. Moreover, the “Calcium level in serum” value in data set [2] (after 10 hours) is 11.5 ± 0.5 mg/dL; in data set [2] (after 18 hours), 10.6 ± 0.4 mg/dL; in data set [5] (2 h after administration) it was 12.5 ± 0.4 mg/dL; in data set [5] (5 h after administration), 11.0 ± 0.5 mg/dL; in data set [5] (8 h after administration), 10.5 ± 0.5 mg/dL; in data set [5] (12 h after administration) it was 10.5 ± 0.4 mg/dL. The “Calcium level in serum” value in data set [5] (24 h after administration) is 10.8 ± 0.3 mg/dL. The “Number of K-562 cells after culture” value was 8.5 ×10^5 cells/ml in data set [3] (1 microgram/ml) and 3.5 ×10^5 cells/ml in data set [3] (10 micrograms/ml). Besides, the inhibition at 1 µg/mL in data set [3] (Homo sapiens, K562, 72 h, 1 microgram/ml, vs dimethylsulfoxide, read-out: Inhibition Rate of K-562 cells) came to 14%. In addition, in data set [3] (Homo sapiens, K562, 72 h, 10 micrograms/ml, vs dimethylsulfoxide, read-out: Inhibition Rate of K-562 cells), the inhibition at 10 µg/mL was determined as 65%. Also, the “histopathological examination of organs” value in data set [4] was “no abnormal findings were obtained”. In data set [4] (all groups), the body weight entry is on record as “no significant difference of body weight was observed”. The “weights of internal organs” value in data set [4] (all groups) was “not significantly different”. Besides, the “period for which the reduced calcium level was maintained” value in data set [5] (100 µg/kg oral) was 12 h. Also, the “inorganic phosphate level in serum” value in data set [6] was “significant reduction of the inorganic phosphate level”. In data set [7] (20 µg/kg/day oral, 7 days), the “Calcium level in serum after one week of transplantation” value was 11.2 ± 0.6 mg/dL. The “Calcium level in serum before transplantation” value in data set [7] (before transplantation (baseline)) worked out at 10.5 ± 0.3 mg/dL.

The record behind these values is patent US4442093A, “Method for administering 24,25-dihydroxycholecalciferol to persons suffering from hypercalcemia” (Kureha Kagaku Kogyo Kabushiki Kaisha, priority 1981, dated 1984).
